Measured values taken from patent US10738001B2, “Hydrofluoroolefins and methods of using same” (priority 2015, dated 2020).
Read-outs that look alike come from different tables or passages of the source.

Experiments:
rats = assay: toxicity screening study in rats, 4 Hr Inhalation LC50
[1] = Atmospheric lifetime by relative rate method (hydroxyl radical rate constant); assay type: physicochemical
Method: (§1) In these Examples, Log KOWs, (octanol/water partition coefficients), were determined by HPLC using the method described in OECD Method 117. Atmospheric lifetimes were experimentally determined using a relative rate method to determine the hydroxyl radical rate constant.

[2] = Log KOW (octanol/water partition coefficient) by HPLC, OECD Method 117; assay type: physicochemical
Method: as §1

| Compound | 4 Hr Inhalation LC50 (rats) | atmospheric lifetime [1] | Log KOW (octanol/water partition coefficient measured by HPLC) [2] | Log KOW (octanol/water partition coefficient measured by HPLC) ([2]; HPLC, OECD Method 117, average value for the E/Z product mixtures of Examples 1-3) | chromatographic logP [2] | chromatographic logP ([2]; octanol/water, HPLC, OECD Method 117, average value for the E/Z product mixtures of Examples 1-3, read-out: Log KOW (octanol/water partition coefficient measured by HPLC)) |
| --- | --- | --- | --- | --- | --- | --- |
| 4-(E&Z)-(1,2-difluorovinyl)-2,2,3,3,5,5,6,6-octafluoromorpholine [Example 4] | > 10,000 ppm | 0.078 years | 4.31 |  |  |  |
| FC(=CC(F)(F)F)N(C(F)(F)F)C(F)(F)C(F)(F)F [Example 1, (E&Z)-1,3,3,3-tetrafluoro-N-(1,1,2,2,2-pentafluoroethyl)-N-(trifluoromethyl)prop-1-en-1-amine] |  |  |  | 4.57 |  |  |
| FC(=CC(F)(F)F)N1C(F)(F)C(F)(F)OC(F)(F)C1(F)F [Example 2] | > 10,390 ppm | 0.89 years | 4.80 |  |  |  |
| F/C(=C\C(F)(F)F)N(C(F)(F)F)C(F)(F)F [Example 3, (E&Z)-1,3,3,3-tetrafluoro-N,N-bis(trifluoromethyl)prop-1-en-1-amine] |  | 1.3 years |  |  | 4.12 |  |
| C=C(F)N1C(F)(F)C(F)(F)OC(F)(F)C1(F)F [Example 6, 2,2,3,3,5,5,6,6-octafluoro-4-(1-fluorovinyl)morpholine] | > 10,000 ppm | 0.095 years |  |  |  | 4.33 |
| FC=C(F)N(C(F)(F)C(F)(F)F)C(F)(F)C(F)(F)C(F)(F)F [Example 8, N-(E&Z)-(1,2-difluorovinyl)-1,1,2,2,3,3,3-heptafluoro-N-(perfluoroethyl)propan-1-amine] |  |  | 4.97 |  |  |  |
